Measurements as given in ChEMBL document CHEMBL3217535, “Synthesis and biological activity of furanylindazoles as inhibitors of hypoxia inducible factor (HIF)-1 transcriptional activity” (Medchemcomm, 2012).
Values belong to the compound of their own block, whether it stands above or below them. Active and inactive are the calls of the source. The calls are words filed in the database; no cut-off is given here.

How the values were obtained:
[1] = Inhibition of HIF-1 (unknown origin) expressed in human HeLa cells after 12 hrs by HRE luciferase reporter gene assay; type: cell-based
[2] = Drug uptake in nucleus of human RXF631L cells azide-Alexa 488-based fluorescent microscopy; type: ADME
[3] = Drug uptake in nucleus of human NCI-H226 cells azide-Alexa 488-based fluorescent microscopy; type: ADME, cell-based
[4] = Drug uptake in cytoplasm of human NCI-H226 cells azide-Alexa 488-based fluorescent microscopy; type: ADME, cell-based
[5] = Drug uptake in cytoplasm of human RXF631L cells azide-Alexa 488-based fluorescent microscopy; type: ADME
[6] = Drug uptake in granular vesicle of human RXF631L cells azide-Alexa 488-based fluorescent microscopy; type: ADME
[7] = Drug uptake in granular vesicle of human MKN1 cells azide-Alexa 488-based fluorescent microscopy; type: ADME, cell-based; conditions: mkn-1
[8] = Drug uptake in granular vesicle of human NCI-H226 cells azide-Alexa 488-based fluorescent microscopy; type: ADME, cell-based
Mus musculus [9] = assay: In vivo inhibition of HIF1 transcriptional activity in nude mouse xenografted with human SUIT2/HRE-luc cells at 10 mg/kg, ip measured after 24 hrs by bioluminescence assay; type: functional, organism-based; set-up: dose 10 mg/kg
NCI-H226 = assay: Growth inhibition of human NCI-H226 cells by SRB assay; type: functional
[10] = Growth inhibition of human RXF631L cells by SRB assay; type: functional; conditions: for GI50: RXF 631
Mus musculus [11] = assay: In vivo inhibition of HIF1 transcriptional activity in nude mouse xenografted with human SUIT2/HRE-luc cells at 10 mg/kg, ip measured after 12 hrs by bioluminescence assay; type: functional, organism-based; set-up: dose 10 mg/kg
[12] = Growth inhibition of human HBC4 cells by SRB assay; type: functional; conditions: HBC4, read-out: pGI50 (converted)
[13] = Growth inhibition of human BSY1 cells by SRB assay; type: functional; conditions: BSY-1
[14] = Growth inhibition of human HBC5 cells by SRB assay; type: functional
MCF7 = assay: Growth inhibition of human MCF7 cells by SRB assay; type: functional
MDA-MB-231 = assay: Growth inhibition of human MDA-MB-231 cells by SRB assay; type: functional
U-251 = assay: Growth inhibition of human U251 cells by SRB assay; type: functional
SF-268 = assay: Growth inhibition of human SF268 cells by SRB assay; type: functional; conditions: SF-268, read-out: pGI50 (converted)
[15] = Growth inhibition of human SF295 cells by SRB assay; type: functional; conditions: SF-295
[16] = Growth inhibition of human SF539 cells by SRB assay; type: functional; conditions: SF-539, read-out: pGI50 (converted)
SNB-75 = assay: Growth inhibition of human SNB75 cells by SRB assay; type: functional; conditions: SNB-75, read-out: pGI50 (converted)
[17] = Growth inhibition of human SNB78 cells by SRB assay; type: functional; conditions: SNB-78, read-out: pGI50 (converted)
[18] = Growth inhibition of human HCC2998 cells by SRB assay; type: functional; conditions: HCC 2998, read-out: pGI50 (converted)
KM12 = assay: Growth inhibition of human KM12 cells by SRB assay; type: functional
HT-29 = assay: Growth inhibition of human HT-29 cells by SRB assay; type: functional; conditions: HT-29, read-out: pGI50 (converted)
[19] = Growth inhibition of human HCT15 cells by SRB assay; type: functional; conditions: HCT-15
HCT-116 = assay: Growth inhibition of human HCT116 cells by SRB assay; type: functional
NCI-H23 = assay: Growth inhibition of human NCI-H23 cells by SRB assay; type: functional; conditions: NCI-H23, read-out: pGI50 (converted)
NCI-H522 = assay: Growth inhibition of human NCI-H522 cells by SRB assay; type: functional
NCI-H460 = assay: Growth inhibition of human NCI-H460 cells by SRB assay; type: functional
A549 = assay: Growth inhibition of human A549 cells by SRB assay; type: functional
[20] = Growth inhibition of human DMS273 cells by SRB assay; type: functional; conditions: DMS-273
[21] = Growth inhibition of human DMS114 cells by SRB assay; type: functional; conditions: DMS-114
[22] = Growth inhibition of human LOXIMVI cells by SRB assay; type: functional; conditions: LOX IMVI
[23] = Growth inhibition of human OVCAR3 cells by SRB assay; type: functional; conditions: OVCAR-3
[24] = Growth inhibition of human OVCAR4 cells by SRB assay; type: functional; conditions: OVCAR-4, read-out: pGI50 (converted)
[25] = Growth inhibition of human OVCAR5 cells by SRB assay; type: functional; conditions: OVCAR-5
[26] = Growth inhibition of human OVCAR8 cells by SRB assay; type: functional; conditions: OVCAR-8
SK-OV-3 = assay: Growth inhibition of human SKOV3 cells by SRB assay; type: functional
ACHN = assay: Growth inhibition of human ACHN cells by SRB assay; type: functional
St-4 = assay: Growth inhibition of human St-4 cells by SRB assay; type: functional; conditions: St-4, read-out: pGI50 (converted)
[27] = Growth inhibition of human MKN1 cells by SRB assay; type: functional; conditions: MKN-1, read-out: pGI50 (converted)
[28] = Growth inhibition of human MKN7 cells by SRB assay; type: functional; conditions: MKN-7
[29] = Growth inhibition of human MKN28 cells by SRB assay; type: functional; conditions: MKN-28
[30] = Growth inhibition of human MKN45 cells by SRB assay; type: functional; conditions: MKN-45
[31] = Growth inhibition of human MKN74 cells by SRB assay; type: functional; conditions: MKN-74, read-out: pGI50 (converted)
DU-145 = assay: Growth inhibition of human DU145 cells by SRB assay; type: functional; conditions: DU-145, read-out: pGI50 (converted)
PC-3 = assay: Growth inhibition of human PC3 cells by SRB assay; type: functional

SMILES: OCc1ccc(-c2nn(Cc3cccc(F)c3)c3ccccc23)o1
IC50 [1]: 0.48 µM

SMILES: OCc1ccc(-c2nn(Cc3cccnc3)c3ccccc23)o1
IC50 [1]: 0.46 µM

SMILES: [N-]=[N+]=Nc1ccc(Cn2nc(-c3ccc(CO)o3)c3ccccc32)cc1
IC50 [1]: 1.24 µM

SMILES: C#CCOCc1ccc(-c2nn(Cc3ccccc3)c3ccccc23)o1
IC50 [1]: 7 µM

SMILES: C#CCNc1ccc(Cn2nc(-c3ccc(CO)o3)c3ccccc32)cc1
IC50 [1]: 0.61 µM | Drug uptake [2]: Active | Drug uptake [3]: Active | Drug uptake [4]: Active | Drug uptake [5]: Active | Drug uptake [6]: Active | Drug uptake [7]: Active | Drug uptake [8]: Not Active

SMILES: OCc1ccc(-c2nn(Cc3ccc(F)cc3)c3ccccc23)o1
IC50 [1]: 0.53 µM

SMILES: OCc1ccc(-c2nn(Cc3ccccc3Cl)c3ccccc23)o1
IC50 [1]: 0.65 µM

SMILES: OCc1ccc(-c2nn(Cc3ccc(-c4ccccc4)cc3)c3ccccc23)o1
IC50 [1]: 3.3 µM

SMILES: OCc1ccc(-c2nn(Cc3ccc(Cl)cc3)c3ccccc23)o1
IC50 [1]: 2.8 µM

SMILES: COc1ccc(Cn2nc(-c3ccc(CO)o3)c3ccccc32)cc1
IC50 [1]: 0.97 µM

SMILES: O=Cc1ccc(-c2nn(Cc3ccccc3)c3ccccc23)o1
IC50 [1]: 9 µM

SMILES: OCc1ccc(-c2nn(Cc3ccccc3C(F)(F)F)c3ccccc23)o1
IC50 [1]: 13.9 µM

SMILES: OCc1ccc(-c2nn(Cc3ccccc3)c3ccccc23)o1
IC50 [1]: 2 µM | inhibition (Mus musculus [9]): inactive | GI50 (NCI-H226): 0.224 µM | CC50 (NCI-H226; read-out: pLC50 (the source's name) (converted)): 9.77 µM | TGI (NCI-H226; read-out: pTGI (converted)): 0.661 µM | GI50 [10]: 0.158 µM | TGI ([10]; RXF 631, read-out: pTGI (converted)): 0.525 µM

SMILES: [N-]=[N+]=NCc1ccc(Cn2nc(-c3ccc(CO)o3)c3ccccc32)cc1
IC50 [1]: 0.7 µM

SMILES: C#CC(O)c1ccc(-c2nn(Cc3ccccc3)c3ccccc23)o1 (centres undefined)
IC50 [1]: > 30 µM

SMILES: OCc1ccc(-c2nn(Cc3ccc(C(F)(F)F)cc3)c3ccccc23)o1
IC50 [1]: 9.4 µM

SMILES: OCc1ccc(-c2nn(Cc3ccncc3)c3ccccc23)o1
IC50 [1]: 0.83 µM

Now those with a lower IC50 [1], led by results:

IC50 [1]: 0.18 µM
SMILES: OCc1ccc(-c2nn(Cc3c(F)c(F)c(F)c(F)c3F)c3ccccc23)o1

IC50 [1]: 0.26 µM
SMILES: OCc1ccc(-c2nn(Cc3ccccc3F)c3ccccc23)o1

IC50 [1]: 0.27 µM
SMILES: N#Cc1ccc(Cn2nc(-c3ccc(CO)o3)c3ccccc32)cc1

IC50 [1]: 0.1 µM | GI50 (MCF7): 38 µM | GI50 (MDA-MB-231): 25.1 µM | GI50 (U-251): 95.5 µM | GI50 (HT-29): > 100 µM | GI50 (HCT-116): 58.9 µM | GI50 (NCI-H23): > 100 µM | GI50 (NCI-H226): 0.0513 µM | GI50 (NCI-H522): 17.8 µM | GI50 (NCI-H460): 41.7 µM | GI50 (A549): 66.1 µM | GI50 (SK-OV-3): 53.7 µM | GI50 (ACHN): 74.1 µM | GI50 (DU-145): > 100 µM | GI50 (PC-3): 43.7 µM
SMILES: OCc1ccc(-c2nn(Cc3c(F)cccc3F)c3ccccc23)o1
inhibition (Mus musculus [11]): Active | inhibition (Mus musculus [9]): inactive | GI50 [12]: > 100 µM | GI50 [13]: 29.5 µM | GI50 [14]: 30.2 µM | GI50 (SF-268): > 100 µM | GI50 [15]: 49 µM | GI50 [16]: > 100 µM | GI50 (SNB-75): > 100 µM | GI50 [17]: > 100 µM | GI50 [18]: > 100 µM | GI50 (KM12): 79.4 µM | GI50 [19]: 41.7 µM | GI50 [20]: 50.1 µM | GI50 [21]: 41.7 µM | GI50 [22]: 24.5 µM | GI50 [23]: 75.9 µM | GI50 [24]: > 100 µM | GI50 [25]: 72.4 µM | GI50 [26]: 77.6 µM | GI50 [10]: 0.0447 µM | GI50 (St-4): > 100 µM | GI50 [27]: > 100 µM | GI50 [28]: 36.3 µM | GI50 [29]: 51.3 µM | GI50 [30]: 24 µM | GI50 [31]: > 100 µM

IC50 [1]: 0.31 µM
SMILES: OCc1ccc(-c2nn(Cc3ccc(F)cc3F)c3ccccc23)o1

IC50 [1]: 0.3 µM
SMILES: OCc1ccc(-c2nn(Cc3ccccn3)c3ccccc23)o1

IC50 [1]: 0.07 µM
SMILES: OCc1ccc(-c2nn(Cc3c(F)c(F)cc(F)c3F)c3ccccc23)o1
inhibition (Mus musculus [9]): inactive
